Test results taken from the NIST ThermoML archive (doi:10.1016/j.fluid.2014.09.014).
± gives the expanded uncertainty stated by the source.

Experiment: refractive index (other wavelength) (dimensionless); xn = mol fraction of the nth substance listed
Conditions: 293.15 K, 101 kPa, Liquid, Standard Abbe refractometry

CC(C)OC(C)C [diisopropyl ether] + CO
refractive index
Conditions | Wavelength=546.1 nm | Wavelength=587.6 nm | Wavelength=589.3 nm | Wavelength=632.8 nm
x2 = 0 | – | 1.36806 ± 0.00043 | 1.36801 ± 0.00043 | 1.36674 ± 0.00043
x2 = 0.0423 | – | 1.36811 ± 0.00043 | 1.36806 ± 0.00043 | 1.36678 ± 0.00043
x2 = 0.0424 | – | 1.36803 ± 0.00043 | 1.36798 ± 0.00043 | 1.3667 ± 0.00043
x2 = 0.082 | – | 1.36807 ± 0.00042 | 1.36802 ± 0.00042 | 1.36674 ± 0.00042
x2 = 0.0822 | – | 1.36795 ± 0.00042 | 1.36789 ± 0.00042 | 1.36663 ± 0.00042
x2 = 0.1171 | – | 1.36783 ± 0.00041 | 1.36777 ± 0.00041 | 1.36649 ± 0.00041
x2 = 0.1271 | – | 1.36784 ± 0.00041 | 1.36779 ± 0.00041 | 1.36651 ± 0.00041
x2 = 0.1827 | – | 1.36741 ± 0.0004 | 1.36736 ± 0.0004 | 1.36608 ± 0.0004
x2 = 0.2162 | – | 1.36719 ± 0.0004 | 1.36713 ± 0.0004 | 1.36585 ± 0.0004
x2 = 0.251 | 1.36888 ± 0.00039 | 1.36741 ± 0.00039 | 1.36735 ± 0.00039 | 1.36609 ± 0.00039
x2 = 0.3298 | 1.36792 ± 0.00038 | 1.36645 ± 0.00038 | 1.3664 ± 0.00038 | 1.36512 ± 0.00038
x2 = 0.3577 | 1.36647 ± 0.00038 | 1.365 ± 0.00038 | 1.36494 ± 0.00038 | 1.36367 ± 0.00038
x2 = 0.4497 | 1.36558 ± 0.00037 | 1.36412 ± 0.00037 | 1.36407 ± 0.00037 | 1.3628 ± 0.00037
x2 = 0.4525 | 1.36609 ± 0.00037 | 1.36462 ± 0.00037 | 1.36457 ± 0.00037 | 1.3633 ± 0.00037
x2 = 0.522 | 1.36382 ± 0.00036 | 1.36239 ± 0.00036 | 1.36233 ± 0.00036 | 1.36109 ± 0.00036
x2 = 0.5543 | 1.36357 ± 0.00035 | 1.36214 ± 0.00035 | 1.36209 ± 0.00035 | 1.36085 ± 0.00035
x2 = 0.609 | 1.3644 ± 0.00035 | 1.35903 ± 0.00035 | 1.35897 ± 0.00035 | 1.35774 ± 0.00035
x2 = 0.6529 | 1.35891 ± 0.00035 | 1.35751 ± 0.00034 | 1.35746 ± 0.00034 | 1.35624 ± 0.00034
x2 = 0.7504 | 1.35503 ± 0.00033 | 1.35365 ± 0.00033 | 1.3536 ± 0.00033 | 1.3524 ± 0.00033
x2 = 0.804 | 1.35075 ± 0.00033 | 1.34938 ± 0.00033 | 1.34933 ± 0.00033 | –
x2 = 0.807 | 1.3506 ± 0.00033 | 1.34924 ± 0.00033 | 1.34919 ± 0.00033 | –
x2 = 0.8727 | 1.34528 ± 0.00032 | 1.34394 ± 0.00032 | 1.34389 ± 0.00032 | –
x2 = 0.9233 | 1.33839 ± 0.00033 | 1.33708 ± 0.00033 | 1.33703 ± 0.00033 | –
x2 = 0.9253 | 1.34023 ± 0.00033 | 1.33891 ± 0.00033 | 1.33886 ± 0.00033 | –
x2 = 0.9527 | 1.33705 ± 0.00032 | 1.33574 ± 0.00032 | 1.33569 ± 0.00032 | –
x2 = 0.9773 | 1.33356 ± 0.00032 | 1.33228 ± 0.00032 | 1.33223 ± 0.00032 | –
x2 = 0.989 | 1.33242 ± 0.00032 | 1.33114 ± 0.00032 | 1.3311 ± 0.00032 | –
x2 = 0.9964 | 1.33098 ± 0.00031 | 1.3297 ± 0.00032 | 1.32965 ± 0.00032 | –
